Reference: US9494867B2, “Rinsing liquid for lithography and pattern forming method using same” (AZ ELECTRONIC MATERIALS (LUXEMBOURG) S.A.R.L., priority 2013, dated 2016)

Tests used:
Type in all cases: physicochemical
[1] = Measurement of maximum dissolution quantity in water; conditions: water of 25° C.
Experimental: Different amounts of an additive agent for a rinse solution are added between transparent screws and in each cases water is further added as the total amount of the additive agent and water is made 100 g. These are mixed at 25° C. for 10 hours or more by using a stealer and left at rest for some time at this temperature. The state of dissolution thereof is observed by eyes and the maximum amount of the additive agent wherein insoluble matter is not observed in the solution is defined as a maximum dissolution quantity (ppm).

[2] = Measurement of surface tension of rinse solution; conditions: rinse solution containing 1,000 ppm of the additive
Experimental: A surface tension measurement of a prepared rinse solution was conducted using the surface tensiometer CBVP-Z manufactured by Kyowa interface science Co., LTD.

[3] = Storage stability test of rinse solution; design: key: when the defect number of the test rinse solution is equal to or less than that of the rinse solution of the deionized water, it is evaluated as ‘O’; when the number is more than that of the deionized water, it is evaluated as ‘X’; conditions: additive concentrations more than 3,000 ppm
Experimental: A rinse solution prepared in a predetermined concentration is filtered through a filter and left at rest at 25° C. for one month. A chemically amplified KrF resist composition AZ DX6270P manufactured by AZ Electronic Materials Manufacturing (Japan) K. K. is spin-coated on a silicon wafer and soft-baked at 120° C. for 90 seconds to form a resist film of 620 nm in thickness. The rinse solution after preservation is applied on the resist film and the wafer is rotated at a very high speed to dry it. The total defect numbers of all defects including gel defects and particle defects on this film are measured using a defect inspection apparatus KLA2360 manufactured by KLA Tencor corporation. The number of defects when the preserved test rinse solution is used as a rinse solution is compared with that when the preserved rinse solution consisting of only a deionized water is used (see Comparative example 1) and when the defect number of the test rinse solution is equal to or less than that of the rinse solution of the deionized water, it is evaluated as ‘O’ and when the number is more than that of the deionized water, it is evaluated as ‘X’.

| Structure (SMILES) | Maximum dissolution quantity of additives in water [1] | Surface tension of the rinse solution [2] [mN/m] | Storage stabilities [3] |
| --- | --- | --- | --- |
| CCC(C)(O)C#CC(C)(O)CC (stereo not shown) [DMOD, 3,6-dimethyl-4-octyn-3,6-diol] | >10,000 ppm | – | – |
| CC(O)C#CC(C)O (stereo not shown) [HXYD, 3-hexyne-2,5-diol] | >10,000 ppm | – | – |
| OCc1cccc(CO)c1 [MXG, 1,3-benzendimethanol] | >10,000 ppm | – | – |
| OCCCCO [1,4-butanediol, reference compound] | >10,000 ppm | – | – |
| OCc1ccc(CO)cc1 [PXG, p-xylylene glycol] | >10,000 ppm | – | – |
| CC(C)(O)C#CC(C)(C)O [DMHD, 2,5-dimethyl-3-hexyne-2,5-diol] | >10,000 ppm | – | – |
| OCC#CCO [BTD, 1,4-butynediol] | >10,000 ppm | – | – |
| CC(O)C=CC(C)O (stereo not shown) [HXED, 3-hexene-2,5-diol] | – | 66.5 | – |
| OCC#CC#CCO [HXDD, 2,4-hexadiyn-1,6-diol] | >10,000 ppm | – | – |
| CCOC(O)C#CC(O)OCC (stereo not shown) [DODD, 3,8-dioxa-5-decyne-4,7-diol, reference compound] | >10,000 ppm | – | X |
| OCC1CCC(CO)CC1 (stereo not shown) [CHDM, 1,4-cyclohexanedimethanol, reference compound] | >10,000 ppm | – | – |
| OCc1ccccc1CO [OXG, 1,2-benzendimethanol] | >10,000 ppm | – | – |
